From patent US20220160815A1, “PEPTIDES AND USES THEREOF” (LATERAL IP PTY LTD, priority 2019, published 2022)
Several values for one entry are separate records, joined by “and”; a condition that tells them apart may be missing. Equal entries are not always repeated.

What was measured:
Assay type in all cases: in vivo, human
[1] = test system: migraine; experiment: Case studies 1-3: oral LAT8881 capsules taken during a migraine attack, self-rated pain and nausea
[2] = test system: migraine; experiment: Case study 4: LAT8881 injected into the right greater occipital nerve during a migraine attack; settings: 0.4 mg injected into right greater occipital nerve
Experimental: The subject was a person that suffers from migraines and occipital neuralgia. The subject presented with bilateral tenderness of both occipital nerve sites and bilateral headaches, bitemporally and behind the eyes, all indicative of a migraine attack.
Dosage: 0.4 mg of LAT8881 (SEQ ID NO:2) injected into the right greater occipital nerve.

[3] = test system: migraine headache; experiment: Randomised, placebo-controlled, double-blind, crossover proof of concept study of oral LAT8881 in acute migraine headache; settings: 60 mg oral
Excerpt: The primary objective of this study was to evaluate the effect of oral LAT8881 on migraine headache compared with placebo, when assessed by the headache severity on an 11-point Numeric Rating Scale (NRS).
The secondary objectives of this study included: • a) to evaluate the effect of oral LAT8881 on migraine-associated symptoms compared with placebo, when assessed by the change in symptoms based on a 11-point Likert scale; • b) to investigate the percentage of subjects achieving “no headache pain” following treatment with oral LAT8881 compared with placebo at any time-point to 8 hours post dose, with no use of rescue medication; and • c) to evaluate the safety and tolerability of single doses of oral LAT8881 in subjects with migraine headache.
This was a randomised, placebo-controlled, double-blind, crossover, Phase Ha proof of concept study to investigate the efficacy and safety of oral LAT8881 (SEQ ID NO:2) in acute migraine headache with or without aura.
Subjects entered into the study were randomised to receive IMP (LAT8881; 60 mg or placebo), taken at the onset (within one hour from the onset of pain) of a migraine headache of moderate to severe intensity [Numeric rating scale (NRS)≥4]. Subjects were advised not to take rescue medication until at least 2 hours post dose with LAT8881. Subjects were given one dose of IMP (2 capsules), to treat one migraine headache.
After treatment of one migraine headache (or a maximum 28 days), the subject was asked to return to the clinic for re-evaluation and crossover to the second treatment. In the second treatment period, subjects were asked to take IMP in the same manner as in treatment period 1.
Subjects entered into the study were randomised to receive IMP (LAT8881; 60 mg or placebo; orally), to be taken at the onset (within one hour from the onset of pain) of a migraine headache of moderate to severe intensity.
Primary efficacy endpoints included a change in migraine headache pain score, using an 11-point NRS, (0=none, 10=worst imaginable), from the time of dosing to 0.5, 1.0, 1.5, 2, 4, 8 and 24 hours post dose. Pain was recorded in the subject' diary and was expected to reflect the subject's pain at the time of recording.
Secondary efficacy endpoints included: • a) Change in migraine-associated symptoms of nausea, photophobia and phonophobia. Symptoms were assessed on an 11-point Likert scale with 0=no symptoms and 10 being severe symptoms at time of dosing and at 0.5, 1.0, 1.5, 2, 4, 8 and 24 hours post dose; • b) Change in each subject's most troublesome symptom that may include nausea, photophobia and phonophobia cognitive impairment, dizziness and functional disability. Symptoms were assessed on an 11-point Likert scale with 0=no symptoms and 10 being severe symptoms at time of dosing and at 0.5, 1.0, 1.5, 2, 4, 8 and 24 hours post dose; and • c) The percentage of subjects achieving “no headache pain” at 0.5, 1.0, 1.5, 2, 4 and 8 hours post dose.
Post-hoc analyses were undertaken to assess the responder rate at each time point after dose of IMP. Two classifications of responder were defined: at least 30% change from baseline in NRS score and an NRS score of less than or equal to 3 at the post dose time points. After unblinding, it was discovered that one subject had recorded a pre-dose NRS score of 2 in period 1, a major protocol deviation as the instructions were to take IMP within one hour of the onset of a migraine headache of moderate to severe intensity (NRS>=4). This subject's data for this period was excluded. The responder rate for each treatment and difference between LAT8881 and placebo (95% confidence interval) at each time point are provided in Table 2, below (P1=Period 1; P2=Period 2; Photo=Photophobia; Phono=Phonophobia). FIGS. 1-4 show selected examples of NSR Pain Scores of subjects that completed the study and who received treatment with either placebo or with LAT8881 (SEQ ID NO:2; 60 mg per dose, orally).

[4] = Case Study 2, 1 mg, 4 hours after dosing, 8 out of 10 at time of dosing
[5] = 2 subjects menstruating at the time of the migraine, NRS pain score
[6] = of the 15 subjects who completed the study
[7] = subjects who showed a benefit, NRS pain score
[8] = subjects who were slightly worse, NRS pain score

Sequence: YLRIVQCRSVEGSCGF (listed as Homo sapiens) [LAT8881, C-terminal fragment of human growth hormone (hGH) spanning amino acid residues 178-192, with an additional tyrosine residue at the N-terminus]
- migraine pain rating ([1]; Case Study 1, 1 mg (four 0.25 mg capsules), an hour after dosing, 8 out of 10 at time of dosing): 7 out of 10
- nausea rating ([1]; Case Study 1, 1 mg, 4 hours after dosing, 7 out of 10 at time of dosing): 3 out of 10
- migraine pain rating ([1]; Case Study 1, 1 mg, 4 hours after dosing, 8 out of 10 at time of dosing): 6 out of 10
- nausea rating ([1]; Case Study 1, 1 mg, an hour after dosing, 7 out of 10 at time of dosing): 5 out of 10
- migraine recurrence after dosing ([1]; Case Study 1, 1 mg, subject averages about one migraine per month): No migraine was reported in the following month
- migraine pain rating ([1]; Case Study 2, 1 mg (two 0.5 mg capsules), an hour after dosing, 8 out of 10 at time of dosing): 2 out of 10
- migraine pain rating [1, 4]: 1 out of 10
- nausea rating [1, 4]: 1 out of 10
- nausea rating ([1]; Case Study 2, 1 mg, an hour after dosing, 8 out of 10 at time of dosing): 2 out of 10
- migraine recurrence after dosing ([1]; Case Study 2, 1 mg, subject averages about two migraines per month): No migraines reported in the following two months
- nausea rating ([1]; Case Study 3, 0.5 mg, overnight, 0 out of 10 at time of dosing): 0 out of 10
- migraine recurrence after dosing ([1]; Case Study 3, 0.5 mg, subject has migraines once every 3-6 months): No migraines reported in the following three months
- migraine pain reported by subject ([2]; Case Study 4, migraines and occipital neuralgia, within ten minutes): pain-free
- other effects reported by subject ([2]; Case Study 4): mental clarity and loss of brain fog
- tenderness over the occipital nerve ([2]; Case Study 4, within ten minutes, bilateral tenderness at presentation): no tenderness on either side over the occipital nerve
- average score reduction in menstruating subjects [3, 5]: 6
- range of score reduction in menstruating subjects [3, 5]: 10 to 2
- Nausea change 2 hrs LAT8881 ([3]; 11-point Likert scale, individual subjects): 0 (2×) and −5 (2×) and −10 and 1 and −1 (4×) and −2 (2×) and 2 and −8 and 3 and −3 and 6
- LAT8881 pain score at 2 hours ([3]; 11-point NRS (0=none, 10=worst imaginable), individual subjects): 2 and 1 and 0 and 5 (2×) and 8 (3×) and 6 (4×) and 3 (2×) and 4 and 7 and 9
- Responder rate (95% CI), 30% change from baseline ([3]; 30 minutes post dose): 0
- Responder rate (95% CI), NRS Score <= 3 ([3]; 30 minutes post dose): 0
- Count/Total, NRS Score <= 3 ([3]; 30 minutes post dose, responder = NRS score of less than or equal to 3): 0/16
- Count/Total, 30% change from baseline ([3]; 30 minutes post dose, responder = at least 30% change from baseline in NRS score): 0/16
- Count/Total, 30% change from baseline ([3]; 1 hour post dose): 2/16
- Count/Total, NRS Score <= 3 ([3]; 1 hour post dose): 1/16
- Responder rate (95% CI), 30% change from baseline ([3]; 1 hour post dose): 12.50
- Responder rate (95% CI), 30% change from baseline, difference LAT8881 60 mg-Placebo ([3]; 1 hour post dose): 12.5 (−3.7, 28.7)
- Responder rate (95% CI), NRS Score <= 3 ([3]; 1 hour post dose): 6.25
- Responder rate (95% CI), NRS Score <= 3, difference LAT8881 60 mg-Placebo ([3]; 1 hour post dose): 0 (−16.77, 16.77)
- Count/Total, 30% change from baseline ([3]; 1.5 hours post dose): 3/16
- Count/Total, NRS Score <= 3 ([3]; 1.5 hours post dose): 3/16
- Responder rate (95% CI), 30% change from baseline ([3]; 1.5 hours post dose): 18.75
- Responder rate (95% CI), 30% change from baseline, difference LAT8881 60 mg-Placebo ([3]; 1.5 hours post dose): 12.5 (−10, 35)
- Responder rate (95% CI), NRS Score <= 3 ([3]; 1.5 hours post dose): 18.75
- Responder rate (95% CI), NRS Score <= 3, difference LAT8881 60 mg-Placebo ([3]; 1.5 hours post dose): 12.5 (−10, 35)
- subjects menstruating at the time of the migraine who benefited ([3]; 2 hours): 2 out of 2
- Count/Total, 30% change from baseline ([3]; 2 hours post dose): 8/16
- Count/Total, NRS Score <= 3 ([3]; 2 hours post dose): 5/16
- Responder rate (95% CI), 30% change from baseline ([3]; 2 hours post dose): 50.00
- Responder rate (95% CI), 30% change from baseline, difference LAT8881 60 mg-Placebo ([3]; 2 hours post dose): 18.75 (−14.66, 52.16)
- Responder rate (95% CI), NRS Score <= 3 ([3]; 2 hours post dose): 31.25
- Responder rate (95% CI), NRS Score <= 3, difference LAT8881 60 mg-Placebo ([3]; 2 hours post dose): 25 (-0.62, 50.62)
- Count/Total, 30% change from baseline ([3]; 4 hours post dose): 8/16
- Count/Total, NRS Score <= 3 ([3]; 4 hours post dose): 5/16
- Responder rate (95% CI), 30% change from baseline ([3]; 4 hours post dose): 50.00
- Responder rate (95% CI), 30% change from baseline, difference LAT8881 60 mg-Placebo ([3]; 4 hours post dose): 0 (−34.65, 34.65)
- Responder rate (95% CI), NRS Score <= 3 ([3]; 4 hours post dose): 31.25
- Responder rate (95% CI), NRS Score <= 3, difference LAT8881 60 mg-Placebo ([3]; 4 hours post dose): −6.25 (-39.09, 26.59)
- Count/Total, 30% change from baseline ([3]; 8 hours post dose): 14/16
- Count/Total, NRS Score <= 3 ([3]; 8 hours post dose): 13/16
- Responder rate (95% CI), 30% change from baseline ([3]; 8 hours post dose): 87.50
- Responder rate (95% CI), 30% change from baseline, difference LAT8881 60 mg-Placebo ([3]; 8 hours post dose): 25 (−3.73, 53.73)
- Responder rate (95% CI), NRS Score <= 3 ([3]; 8 hours post dose): 81.25
- Responder rate (95% CI), NRS Score <= 3, difference LAT8881 60 mg-Placebo ([3]; 8 hours post dose): 25 (−5.93, 55.93)
- Count/Total, 30% change from baseline ([3]; 24 hours post dose): 16/16
- Count/Total, NRS Score <= 3 ([3]; 24 hours post dose): 15/16
- Responder rate (95% CI), 30% change from baseline ([3]; 24 hours post dose): 100.00
- Responder rate (95% CI), 30% change from baseline, difference LAT8881 60 mg-Placebo ([3]; 24 hours post dose): 12.5 (−3.7, 28.7)
- Responder rate (95% CI), NRS Score <= 3 ([3]; 24 hours post dose): 93.75
- Responder rate (95% CI), NRS Score <= 3, difference LAT8881 60 mg-Placebo ([3]; 24 hours post dose): 6.25 (−13.83, 26.33)
- LAT8881 change from baseline ([3]; NRS pain score, predose to 2 hours, individual subjects): −3 (3×) and −5 and −10 and 1 (3×) and 2 (2×) and −4 (2×) and −2 (3×) and −1 and 0
- Most Troublesome, change 2 hrs LAT8881 ([3]; most troublesome symptom, 11-point Likert scale, individual subjects): −5 (3×) and −10 and 3 (3×) and 0 (4×) and −4 and 1 and −2 (3×) and −1
- number of subjects slightly worse at 2 hours [3, 6]: 5
- number of subjects unchanged at 2 hours [3, 6]: 1
- number of subjects whose pain had reduced to 3 or less after 2 hours [3, 6]: 4
- number of subjects who showed a benefit at 2 hours ([3]; of the 15 subjects who completed the study, NRS pain score): 9
- Phono change at 2 hrs LAT8881 ([3]; phonophobia, 11-point Likert scale, individual subjects): 0 (9×) and −7 and 4 and 2 (2×) and −4 and −1 and −2 and 3
- Photo change at 2 hrs LAT8881 ([3]; photophobia, 11-point Likert scale, individual subjects): 0 (3×) and −2 (5×) and −7 and 1 (4×) and −6 (2×) and −4
- pain score reduction in the subject menstruating at the time of each treatment ([3]; placebo led to an increase of 3 in the same subject): 2
- median benefit at 2 hours [3, 7]: 3
- range of benefit at 2 hours [3, 7]: 1-10
- median increase at 2 hours [3, 8]: 2
- range of increase at 2 hours [3, 8]: 1-2
